Test results from PMC5218480 (PLoS ONE, 2017).

System: MV-4-11 cells
Assay: Gene expression microarray analysis (Affymetrix PrimeView) and GSEA
Format: cell-based, human
Set-up: RFU PODN (11730768_x_at) / Fold change /veh PODN (11730768_x_at) / RFU LINC00158 (11744669_a_at) / Fold change /veh LINC00158 (11744669_a_at) / RFU DUSP10 (11751237_a_at) / Fold change /veh DUSP10 (11751237_a_at) / RFU ID3 (11757404_x_at) / Fold change /veh ID3 (11757404_x_at) / RFU PLEKHG5 (11737974_s_at) / Fold change /veh PLEKHG5 (11737974_s_at) / RFU LRRC4B (11730491_at) / Fold change /veh LRRC4B (11730491_at) / RFU GIMAP4 (11747438_a_at) / Fold change /veh GIMAP4 (11747438_a_at) / RFU KRT8 (11758183_x_at) / Fold change /veh KRT8 (11758183_x_at) / RFU CNN1 (11734310_a_at) / Fold change /veh CNN1 (11734310_a_at) / RFU VPS37D (11726825_at) / Fold change /veh VPS37D (11726825_at) / RFU C10orf10 (11716522_x_at) / Fold change /veh C10orf10 (11716522_x_at) / RFU KIR2DL2 /// KIR2DL4 /// KIR2DL5A /// KIR2DL5B /// KIR2DS1 /// KIR2DS2 /// KIR2DS3 /// KIR2DS4 /// KIR3DL3 /// KIR3DL3 /// KIR3DS1 (11738374_at) / Fold change /veh KIR2DL2 /// KIR2DL4 /// KIR2DL5A /// KIR2DL5B /// KIR2DS1 /// KIR2DS2 /// KIR2DS3 /// KIR2DS4 /// KIR3DL3 /// KIR3DL3 /// KIR3DS1 (11738374_at) / RFU C1QL1 (11718748_at) / Fold change /veh C1QL1 (11718748_at) / RFU TMPRSS4 (11747572_a_at) / Fold change /veh TMPRSS4 (11747572_a_at) / RFU HAMP (11756126_x_at) / Fold change /veh HAMP (11756126_x_at) / RFU RNFT2 (11725882_a_at) / Fold change /veh RNFT2 (11725882_a_at) / RFU NR4A2 (11747474_a_at) / Fold change /veh NR4A2 (11747474_a_at) / RFU ABCC12 (11746883_a_at) / Fold change /veh ABCC12 (11746883_a_at) / RFU TMEM136 (11760407_x_at) / Fold change /veh TMEM136 (11760407_x_at) / RFU CLDN22 /// WWC2 (11732394_at) / Fold change /veh CLDN22 /// WWC2 (11732394_at) / RFU HLA-DPB1 (11760878_x_at) / Fold change /veh HLA-DPB1 (11760878_x_at) / RFU SPINT1 (11716480_a_at) / Fold change /veh SPINT1 (11716480_a_at) / RFU GAP43 (11754022_s_at) / Fold change /veh GAP43 (11754022_s_at) / RFU A4GNT (11735810_at) / Fold change /veh A4GNT (11735810_at) / RFU PRB3 (11715151_x_at) / Fold change /veh PRB3 (11715151_x_at) / RFU TUBB4B (11761932_at) / Fold change /veh TUBB4B (11761932_at) / RFU CAPN14 (11732068_a_at) / Fold change /veh CAPN14 (11732068_a_at) / RFU TMCC2 (11721928_a_at) / Fold change /veh TMCC2 (11721928_a_at) / RFU IRGQ (11745062_a_at) / Fold change /veh IRGQ (11745062_a_at) / RFU FAM174B (11720279_a_at) / Fold change /veh FAM174B (11720279_a_at) / RFU TMPRSS4 (11748680_a_at) / Fold change /veh TMPRSS4 (11748680_a_at) / RFU FAM212B (11763350_a_at) / Fold change /veh FAM212B (11763350_a_at) / RFU PLEKHG5 (11743358_a_at) / Fold change /veh PLEKHG5 (11743358_a_at) / RFU ZSCAN30 (11745921_a_at) / Fold change /veh ZSCAN30 (11745921_a_at) / RFU CMKLR1 (11741424_a_at) / Fold change /veh CMKLR1 (11741424_a_at) / RFU LOC101060620 /// MAPK8IP1 (11723275_at) / Fold change /veh LOC101060620 /// MAPK8IP1 (11723275_at) / RFU SPTSSB (11747773_x_at) / Fold change /veh SPTSSB (11747773_x_at) / RFU PRSS12 (11739890_at) / Fold change /veh PRSS12 (11739890_at) / RFU BIN1 (11741810_x_at) / Fold change /veh BIN1 (11741810_x_at) / RFU WNT11 (11732464_a_at) / Fold change /veh WNT11 (11732464_a_at) / RFU C10orf10 (11716521_a_at) / Fold change /veh C10orf10 (11716521_a_at) / RFU C5orf56 (11738089_at) / Fold change /veh C5orf56 (11738089_at) / RFU CYB561 (11721691_x_at) / Fold change /veh CYB561 (11721691_x_at) / RFU ANKRD19P (11752326_a_at) / Fold change /veh ANKRD19P (11752326_a_at) / RFU OR2T12 /// OR2T33 /// OR2T8 (11738714_s_at) / Fold change /veh OR2T12 /// OR2T33 /// OR2T8 (11738714_s_at) / RFU VCAN (11748164_a_at) / Fold change /veh VCAN (11748164_a_at) / RFU JSRP1 (11732532_at) / Fold change /veh JSRP1 (11732532_at) / RFU KRTAP10-11 (11738290_x_at) / Fold change /veh KRTAP10-11 (11738290_x_at) / RFU MYO3A (11730013_a_at) / Fold change /veh MYO3A (11730013_a_at) / RFU EBF3 (11725865_a_at) / Fold change /veh EBF3 (11725865_a_at) / RFU CAMK2N1 (11719241_x_at) / Fold change /veh CAMK2N1 (11719241_x_at) / RFU C5orf56 (11738088_a_at) / Fold change /veh C5orf56 (11738088_a_at) / RFU OLFML3 (11715873_a_at) / Fold change /veh OLFML3 (11715873_a_at) / RFU LOC100653217 /// NTM (11731650_a_at) / Fold change /veh LOC100653217 /// NTM (11731650_a_at) / RFU MAPK11 (11762145_a_at) / Fold change /veh MAPK11 (11762145_a_at) / RFU FIZ1 (11724087_x_at) / Fold change /veh FIZ1 (11724087_x_at) / RFU OASL (11726364_x_at) / Fold change /veh OASL (11726364_x_at) / RFU SOX15 (11748057_x_at) / Fold change /veh SOX15 (11748057_x_at) / RFU CD79A (11719716_a_at) / Fold change /veh CD79A (11719716_a_at) / RFU HIST1H1D (11736915_at) / Fold change /veh HIST1H1D (11736915_at) / RFU CASKIN2 (11723855_a_at) / Fold change /veh CASKIN2 (11723855_a_at) / RFU LOC730098 (11760151_x_at) / Fold change /veh LOC730098 (11760151_x_at) / RFU OR4N2 (11742367_at) / Fold change /veh OR4N2 (11742367_at) / RFU PRRT2 (11749266_a_at) / Fold change /veh PRRT2 (11749266_a_at) / RFU SNX32 (11753110_a_at) / Fold change /veh SNX32 (11753110_a_at) / RFU CDHR5 (11726645_a_at) / Fold change /veh CDHR5 (11726645_a_at) / RFU RCAN1 (11760418_a_at) / Fold change /veh RCAN1 (11760418_a_at) / RFU FAM167A (11723789_a_at) / Fold change /veh FAM167A (11723789_a_at) / RFU FAM26E (11764081_at) / Fold change /veh FAM26E (11764081_at) / RFU ISYNA1 (11749810_s_at) / Fold change /veh ISYNA1 (11749810_s_at) / RFU ACY1 (11761880_at) / Fold change /veh ACY1 (11761880_at) / RFU 11764098_at / Fold change /veh 11764098_at / RFU SAMD14 (11745864_x_at) / Fold change /veh SAMD14 (11745864_x_at) / RFU NPB (11741838_a_at) / Fold change /veh NPB (11741838_a_at) / RFU TMPRSS6 (11731388_a_at) / Fold change /veh TMPRSS6 (11731388_a_at) / RFU KRTAP10-2 (11738614_at) / Fold change /veh KRTAP10-2 (11738614_at) / RFU ARHGAP8 /// PRR5-ARHGAP8 (11727945_x_at) / Fold change /veh ARHGAP8 /// PRR5-ARHGAP8 (11727945_x_at) / RFU KRTAP5-7 /// NADSYN1 (11734609_at) / Fold change /veh KRTAP5-7 /// NADSYN1 (11734609_at) / RFU RASL12 (11751679_a_at) / Fold change /veh RASL12 (11751679_a_at) / RFU CDKN2B (11736163_a_at) / Fold change /veh CDKN2B (11736163_a_at) / RFU PRF1 (11729649_at) / Fold change /veh PRF1 (11729649_at) / RFU, ZNF638 /// ZNF638-IT1 / Fold change vs veh, ZNF638 /// ZNF638-IT1 / RFU, PANK3 / Fold change vs veh, PANK3 / RFU, SH3YL1 / Fold change vs veh, SH3YL1 / RFU, ZEB2 / Fold change vs veh, ZEB2 / RFU, NRIP1 / Fold change vs veh, NRIP1 / RFU, PTTG1IP / Fold change vs veh, PTTG1IP / RFU, CAPN2 / Fold change vs veh, CAPN2 / RFU, MED14 / Fold change vs veh, MED14 / RFU, SNORA58 / Fold change vs veh, SNORA58 / RFU, C1orf63 / Fold change vs veh, C1orf63 / RFU, LRRFIP1 / Fold change vs veh, LRRFIP1 / RFU, NDUFAF7 / Fold change vs veh, NDUFAF7 / RFU, SLC12A2 / Fold change vs veh, SLC12A2 / RFU, IBTK / Fold change vs veh, IBTK / RFU, ESF1 / Fold change vs veh, ESF1 / Fold change vs veh, TMEM50B / RFU, TAOK1 / Fold change vs veh, TAOK1 / RFU, ACBD3 / Fold change vs veh, ACBD3 / RFU, TMA16 / Fold change vs veh, TMA16 / RFU, RWDD3 / Fold change vs veh, RWDD3 / RFU, BCAT1 / Fold change vs veh, BCAT1 / RFU, EDEM3 / Fold change vs veh, EDEM3 / RFU, TMEM33 / Fold change vs veh, TMEM33 / RFU, WDR75 / Fold change vs veh, WDR75 / RFU, AHCTF1 / Fold change vs veh, AHCTF1 / RFU, TFRC / Fold change vs veh, TFRC / RFU, ZDHHC17 / Fold change vs veh, ZDHHC17 / RFU, NOM1 / Fold change vs veh, NOM1 / RFU, ARL8B / Fold change vs veh, ARL8B / RFU, ZBTB11 / Fold change vs veh, ZBTB11 / RFU, TAMM41 / Fold change vs veh, TAMM41 / RFU, KIAA1704 /// LOC100996395 / Fold change vs veh, KIAA1704 /// LOC100996395 / RFU, ING1 / Fold change vs veh, ING1 / RFU, TRMT61B / Fold change vs veh, TRMT61B / RFU, FUBP3 / Fold change vs veh, FUBP3 / RFU, TP53 / Fold change vs veh, TP53 / RFU, TNKS2 / Fold change vs veh, TNKS2 / RFU, ZFP14 / Fold change vs veh, ZFP14 / RFU, ACTR2 / Fold change vs veh, ACTR2 / RFU, PPP3R1 / Fold change vs veh, PPP3R1 / RFU, PIK3R1 / Fold change vs veh, PIK3R1 / RFU, HNRNPA1 / Fold change vs veh, HNRNPA1 / RFU, RNF170 / Fold change vs veh, RNF170 / RFU, ZNF28 / Fold change vs veh, ZNF28 / RFU, RNGTT / Fold change vs veh, RNGTT / RFU, OGT / Fold change vs veh, OGT / RFU, BRD1 / Fold change vs veh, BRD1 / RFU, MARS / Fold change vs veh, MARS / RFU, ZNF655 / Fold change vs veh, ZNF655 / RFU, FAHD1 / Fold change vs veh, FAHD1 / RFU, BDP1 / Fold change vs veh, BDP1 / RFU, LRRCC1 / Fold change vs veh, LRRCC1 / RFU, ARID1A / Fold change vs veh, ARID1A / RFU, ZNF146 / Fold change vs veh, ZNF146 / RFU, ZNF330 / Fold change vs veh, ZNF330 / RFU, GPN3 / Fold change vs veh, GPN3 / RFU, C9orf123 / Fold change vs veh, C9orf123 / RFU, N4BP2L2 / Fold change vs veh, N4BP2L2 / RFU, ARFIP1 / Fold change vs veh, ARFIP1 / RFU, FAM179B / Fold change vs veh, FAM179B / RFU, BCL10 / Fold change vs veh, BCL10 / RFU, UHRF1BP1L / Fold change vs veh, UHRF1BP1L / RFU, BET1 / Fold change vs veh, BET1 / RFU, CNOT2 / Fold change vs veh, CNOT2 / RFU, ZNF268 / Fold change vs veh, ZNF268 / Fold change vs veh, ZNF507 / RFU, DGCR2 / Fold change vs veh, DGCR2 / RFU, WDSUB1 / Fold change vs veh, WDSUB1 / Fold change vs veh, HSP90B1 /// MIR3652 / RFU, ADSS / Fold change vs veh, ADSS / RFU, GK / Fold change vs veh, GK / RFU, ZNF148 / Fold change vs veh, ZNF148 / RFU, TAF9 / Fold change vs veh, TAF9 / RFU, SLC1A5 / Fold change vs veh, SLC1A5 / RFU, SLMO2 / Fold change vs veh, SLMO2 / RFU, ABCC4 / Fold change vs veh, ABCC4 / RFU, LOC101060439 /// RAP1B / Fold change vs veh, LOC101060439 /// RAP1B / RFU, RFX7 / Fold change vs veh, RFX7 / RFU, GTPBP10 / Fold change vs veh, GTPBP10 / RFU, CNEP1R1 / Fold change vs veh, CNEP1R1 / RFU, BIVM-ERCC5 /// ERCC5 / Fold change vs veh, BIVM-ERCC5 /// ERCC5 / RFU, ILF3 / Fold change vs veh, ILF3 / RFU 11762660_at / Fold change /veh 11762660_at / RFU VCAN (11757783_s_at) / Fold change /veh VCAN (11757783_s_at) / RFU DDX43 (11728927_at) / Fold change /veh DDX43 (11728927_at) / RFU KRT8 (11758188_x_at) / Fold change /veh KRT8 (11758188_x_at) / RFU NKD1 (11759106_at) / Fold change /veh NKD1 (11759106_at) / RFU SRD5A1 (11742802_a_at) / Fold change /veh SRD5A1 (11742802_a_at) / RFU TPSAB1 /// TPSB2 (11721975_s_at) / Fold change /veh TPSAB1 /// TPSB2 (11721975_s_at) / RFU GSTM3 (11746129_a_at) / Fold change /veh GSTM3 (11746129_a_at) / RFU IL23R (11737362_x_at) / Fold change /veh IL23R (11737362_x_at) / RFU TMEM51 (11727254_a_at) / Fold change /veh TMEM51 (11727254_a_at) / RFU PIWIL2 (11732686_x_at) / Fold change /veh PIWIL2 (11732686_x_at) / RFU ORM1 (11744905_x_at) / Fold change /veh ORM1 (11744905_x_at) / RFU CCDC152 (11743942_at) / Fold change /veh CCDC152 (11743942_at) / RFU ECM1 (11717891_a_at) / Fold change /veh ECM1 (11717891_a_at) / RFU IL23R (11748794_a_at) / Fold change /veh IL23R (11748794_a_at) / RFU TNFAIP8L3 (11732012_x_at) / Fold change /veh TNFAIP8L3 (11732012_x_at) / RFU MBOAT4 (11741988_at) / Fold change /veh MBOAT4 (11741988_at) / RFU 11764193_at / Fold change /veh 11764193_at / RFU TMEM53 (11763286_at) / Fold change /veh TMEM53 (11763286_at) / RFU MAGEB2 (11727129_at) / Fold change /veh MAGEB2 (11727129_at) / RFU TMEM200A (11744735_a_at) / Fold change /veh TMEM200A (11744735_a_at) / RFU CCDC152 (11751479_a_at) / Fold change /veh CCDC152 (11751479_a_at) / RFU FAM211A (11726209_a_at) / Fold change /veh FAM211A (11726209_a_at) / RFU RGS16 (11746705_a_at) / Fold change /veh RGS16 (11746705_a_at) / RFU VCAN (11755009_s_at) / Fold change /veh VCAN (11755009_s_at) / RFU RHOB (11743442_s_at) / Fold change /veh RHOB (11743442_s_at) / RFU RGS16 (11720943_a_at) / Fold change /veh RGS16 (11720943_a_at) / RFU RGS16 (11720944_at) / Fold change /veh RGS16 (11720944_at) / RFU, VPS4B / Fold change vs veh, VPS4B / RFU, CREB1 / Fold change vs veh, CREB1 / RFU, DNAJC13 / Fold change vs veh, DNAJC13 / RFU, GNAQ / Fold change vs veh, GNAQ / RFU, CDK5R1 / Fold change vs veh, CDK5R1 / RFU, ZRANB3 / Fold change vs veh, ZRANB3 / RFU, CUL4A / Fold change vs veh, CUL4A / RFU, CCNY / Fold change vs veh, CCNY / RFU, UFL1 / Fold change vs veh, UFL1 / RFU, COG3 / Fold change vs veh, COG3 / RFU, DIAPH2 / Fold change vs veh, DIAPH2 / RFU, SKA2 / Fold change vs veh, SKA2 / RFU, AFF3 / Fold change vs veh, AFF3 / RFU, LMF1 / Fold change vs veh, LMF1 / RFU, IPO11 / Fold change vs veh, IPO11 / RFU, DFFB / Fold change vs veh, DFFB / RFU, FOXP1 / Fold change vs veh, FOXP1 / RFU, CARD8 / Fold change vs veh, CARD8 / RFU, STRN3 / Fold change vs veh, STRN3 / RFU, ADK / Fold change vs veh, ADK / RFU, RASSF2 / Fold change vs veh, RASSF2 / RFU, WIPF1 / Fold change vs veh, WIPF1 / RFU, LARP1B / Fold change vs veh, LARP1B / RFU, RASA1 / Fold change vs veh, RASA1 / RFU, RB1 / Fold change vs veh, RB1 / RFU, PPFIA1 / Fold change vs veh, PPFIA1 / RFU, MAT2A / Fold change vs veh, MAT2A / RFU, CCT5 / Fold change vs veh, CCT5 / RFU, WDR92 / Fold change vs veh, WDR92 / RFU, CUX1 / Fold change vs veh, CUX1 / RFU, TTC7A / Fold change vs veh, TTC7A / RFU, TMEM135 / Fold change vs veh, TMEM135 / RFU, DEPTOR / Fold change vs veh, DEPTOR / RFU, CPM / Fold change vs veh, CPM / RFU, DNAJB6 / Fold change vs veh, DNAJB6 / RFU, CACNA2D3 / Fold change vs veh, CACNA2D3 / RFU, DTX4 / Fold change vs veh, DTX4 / RFU, TFCP2 / Fold change vs veh, TFCP2 / RFU, GMCL1 /// GMCL1P1 / Fold change vs veh, GMCL1 /// GMCL1P1 / RFU, AEBP2 / Fold change vs veh, AEBP2 / RFU, SNHG1 /// SNORD22 /// SNORD25 /// SNORD26 /// SNORD27 /// SNORD28 /// SNORD29 /// SNORD31 / Fold change vs veh, SNHG1 /// SNORD22 /// SNORD25 /// SNORD26 /// SNORD27 /// SNORD28 /// SNORD29 /// SNORD31 / Fold change (Aza/veh), C12orf56 (ProbeSet 11735607_a_at) / Fold change (ACY-1035/veh), C12orf56 (ProbeSet 11735607_a_at) / Fold change (Aza/veh), FGFR1OP (ProbeSet 11751329_s_at) / Fold change (ACY-1035/veh), FGFR1OP (ProbeSet 11751329_s_at) / Fold change (Aza/veh), VPS36 (ProbeSet 11739960_a_at) / Fold change (ACY-1035/veh), VPS36 (ProbeSet 11739960_a_at) / RFU SYPL1 (11715823_x_at) / Fold change /veh SYPL1 (11715823_x_at) / RFU IGFBP7 (11715501_s_at) / Fold change /veh IGFBP7 (11715501_s_at) / RFU REEP3 (11722064_at) / Fold change /veh REEP3 (11722064_at) / RFU IGLL1 (11728026_x_at) / Fold change /veh IGLL1 (11728026_x_at): dose or concentration left out as unconfirmed
Details: MV-4-11 cells, 48 hours

Nc1ncn([C@@H]2O[C@H](CO)[C@@H](O)[C@H]2O)c(=O)n1 [azacitidine]
RFU TPSAB1 /// TPSB2 (11721975_s_at): 24.54 RFU
